Entries after “also recorded” stand apart in the source; their conditions may differ.
Legend:
[1] = target: Olfr57 (Mus musculus, UniProt Q8VGU7); assay: cAMP-dependent dual luciferase reporter assay, Olfr57 expressed in HEK293T cells; assay type: cell-based; conditions: for EC50: HEK293T cells expressing Olfr57, Firefly:Renilla ratio, 4 h, dose response of at least 6 concentrations, read-out: EC50 for activation of Olfr57; for Olfr57 activation (cAMP-mediated response), in words: HEK293T cells expressing Olfr57
Excerpt: (§1) For ORs whose trafficking conditions could be established as described above, an unbiased ligand screen using a dual-luciferase reporter assay (Promega) was used to identify potential ligands. Briefly, ORs were transiently transfected (Lipofectamine 2000, Invitrogen) in triplicate into HEK293T cells along with constructs encoding for CREB-dependent luciferase (Firefly) and a constitutively expressed luciferase (Renilla), along with any accessory proteins previously established to be required for effective cell-surface trafficking. Additional surface labeling experiments were performed with the Firefly and Renilla constructs to ensure effective trafficking was not lost under these transfection conditions. OR activation leads to a rise in cAMP which drives an increase in Firefly luciferase expression. Firefly activity is normalized to the activity of the Renilla luciferase to control for variation in cell number and transfection efficiency. Data were collected using a FLUOstar Omega automated plate reader (BMG LabTech, Cary, NC, United States). Cells were allowed to incubate for at least 30 min in CD293 minimal media, and were then bathed with potential odorants diluted in minimal media for 4 h before measuring Firefly and Renilla-derived luminescence. Initially, screening was performed using odorant mixes that are grouped mainly by functional groups (BzB: nonanal, heptanal, valeraldehyde; BzC: carvone, eugenol, cinnamaldehyde; MA: amyl acetate, 3-octanone, acetophenone; OXLK: 2,3-butanedione, pyruvaldehyde, acetic acid, 1,2-ethanedithiol, 2-butanone; THI-DI: 1,6-hexanedithiol, 1,2-ethanedithiol, 2-methyl-1-propanethiol, 1,2-butanedithiol, 2,3-butanedithiol). These mixtures are known to elicit activation of a large number of olfactory sensory neurons and thus cover a wide range of ‘odorant space’ ([Pluznick et al., 2013]), followed by any known ligands to ORs in the same family as those being tested, as well as physiologically relevant substances. A complete list of chemicals used for screening is found in Supplementary Table 1 and all chemicals tested were obtained from Sigma or Fisher Scientific. To begin, all compounds screened were tested at a minimum of two concentrations (100–300 μm and 1–5 mM) to cover a wide range of potential activation. For each assay, Olfr78 or Olfr1393 and known activators of these receptors (Propionate and Cycloheptanol, respectively) were used as positive controls. In order to determine specific activation, potential activators of one receptor were also tested on at least one other OR simultaneously. Negative controls were performed with both media, and media containing DMSO. […] A significant rise in Firefly:Renilla over baseline was determined by multiple T-Tests ([…] deemed significant).

[2] = tested on: CYP2A6; set-up: method as in Gyoubu and Miyazawa, 2007; Miyazawa and Gyoubu, 2007; conditions: ref Gyoubu and Miyazawa, 2007; cited from earlier work
[3] = tested on: Candida albicans; set-up: method as in Manoharan et al., 2017; conditions: ref Manoharan et al., 2017; cited from earlier work
[4] = target: Olfr177 (Mus musculus, UniProt E9Q7W1); assay: cAMP-dependent dual luciferase reporter assay, Olfr177 expressed in HEK293T cells; assay type: cell-based; conditions: for Olfr177 activation (cAMP response, Firefly:Renilla), in words: HEK293T cells expressing Olfr177; for EC50: HEK293T cells expressing Olfr177, Firefly:Renilla ratio, 4 h, dose response of at least 6 concentrations, read-out: EC50 for activation of Olfr177
Excerpt: as §1

[5] = tested on: phosphodiesterase; set-up: method as in Parra, 2012; conditions: ref Parra, 2012; cited from earlier work
[6] = tested on: heme oxygenase; set-up: method as in Parra, 2012; conditions: hepatocellular carcinoma line (HepG2); ref Parra, 2012; cited from earlier work
[7] = tested on: OR5K1; set-up: method as in Wilkin Françoise et al., 2015; conditions: ref Wilkin Françoise et al., 2015; cited from earlier work
[8] = tested on: Olfr78 and its human homolog, OR51E2; set-up: method as in Pluznick et al., 2013; conditions: ref Pluznick et al., 2013; cited from earlier work
[9] = tested on: Olfr16 and its human homolog, OR10J5; set-up: method as in von der Weid et al., 2015; Tong et al., 2017; conditions: ref von der Weid et al., 2015; Tong et al., 2017; cited from earlier work
[10] = tested on: Olfr544; set-up: method as in Abaffy et al., 2007; Kang et al., 2015; Thach et al., 2017; conditions: ref Abaffy et al., 2007; Kang et al., 2015; Thach et al., 2017; cited from earlier work
[11] = tested on: MOR139-1; set-up: method as in Hiroaki Matsunami, 2010; conditions: ref Hiroaki Matsunami, 2010; cited from earlier work

Chain of Olfr57 (Q8VGU7 entry or part of it): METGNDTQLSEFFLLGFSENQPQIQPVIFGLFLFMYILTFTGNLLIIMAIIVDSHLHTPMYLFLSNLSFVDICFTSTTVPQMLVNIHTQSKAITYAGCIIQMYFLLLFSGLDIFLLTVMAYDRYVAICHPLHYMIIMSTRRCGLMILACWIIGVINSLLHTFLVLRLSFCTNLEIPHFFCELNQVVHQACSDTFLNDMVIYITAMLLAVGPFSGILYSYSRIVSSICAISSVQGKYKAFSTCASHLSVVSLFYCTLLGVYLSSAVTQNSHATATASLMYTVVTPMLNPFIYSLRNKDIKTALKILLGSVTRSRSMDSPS
Chain of Olfr177 (E9Q7W1 entry or part of it): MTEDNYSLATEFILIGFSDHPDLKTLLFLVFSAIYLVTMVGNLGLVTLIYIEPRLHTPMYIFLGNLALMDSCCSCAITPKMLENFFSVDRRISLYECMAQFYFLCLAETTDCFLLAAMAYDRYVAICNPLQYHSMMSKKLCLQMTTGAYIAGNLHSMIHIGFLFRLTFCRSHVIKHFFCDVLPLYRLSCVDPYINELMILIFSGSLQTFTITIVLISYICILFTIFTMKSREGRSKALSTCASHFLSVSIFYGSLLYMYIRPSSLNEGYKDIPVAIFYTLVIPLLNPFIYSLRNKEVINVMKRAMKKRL

Question: Which EC50 [1] does the source give for CC12CCC(C1)C(C)(C)C2=O [(1R)-(-)-fenchone] here?
Answer: 94 µM

Question: What about the “metabolized in the liver by microsomal enzyme CYP2A6” value [2] of the same compound?
Answer: metabolized

Question: And the “antibiofilm and antihyphal properties” value [3]?
Answer: antibiofilm and antihyphal properties

Question: With Cc1cnc(C)c(C)n1 [2,3,5-trimethylpyrazine] as the compound, how does the “Olfr177 activation (cAMP response, Firefly:Renilla), in words” value (from here on “Olfr177 activation”) [4] read?
Answer: failed to plateau

Question: For CCc1ncc(C)nc1C [2-ethyl-3,5-dimethylpyrazine], which phosphodiesterase activity [5] is on record?
Answer: inhibit

Question: And the heme oxygenase activity [6]?
Answer: induced

Question: What about the “Olfr177 activation” value [4] of the same compound?
Answer: significant increase

Question: And the EC50 [4]?
Answer: 1070 µM

Question: What about the “Activation of OR5K1” value [7] of the same compound?
Answer: activated

Question: Which “Response of Olfr78 and OR51E2” value [8] does the source give for CC(=O)/C=C/C1=C(C)CCCC1(C)C [β-ionone] here?
Answer: respond

Question: For CC12CCC(C1)C(C)(C)C2O (centres unmarked) [fenchyl alcohol], which EC50 [1] is on record?
Answer: 45 µM

Question: What about the “antibiofilm and antihyphal properties” value [3] of the same compound?
Answer: antibiofilm and antihyphal properties

Question: Which “Activation of Olfr16 and OR10J5” value [9] does the source give for CC(=O)c1ccccc1 [Acetophenone] here?
Answer: activated

Question: For O=C(O)CCCCCCCC(=O)O [azelaic acid], which “Activation of Olfr544” value [10] is on record?
Answer: activated

Question: With CC(C)[C@]12CC(=O)[C@H](C)[C@H]1C2 [thujone] as the compound, how does the “Olfr57 activation (cAMP-mediated response), in words” value (“Olfr57 activation” for short) [1] read?
Answer: did not elicit a cAMP-mediated response; also recorded: non-activators

Question: Which results are given for (1R)-(+)-camphor?
Answer: Response of MOR139-1 [11]: respond; Olfr57 activation (cAMP-mediated response), in words [1]: weakly activate; antibiofilm and antihyphal properties [3]: antibiofilm and antihyphal properties

Question: Which “Olfr57 activation” value [1] does the source give for O=C1CC2CC[C@H]1C2 [norcamphor] here?
Answer: did not elicit a cAMP-mediated response; also recorded: non-activators

Question: With CC12CCC(CC1)C(C)(C)O2 [eucalyptol] as the compound, how does the EC50 [1] read?
Answer: 234 µM

Question: With CC(C)(O)CCCC1=CCC(C=O)CC1 (centres unmarked) [lyral] as the compound, how does the “Activation of Olfr16 and OR10J5” value [9] read?
Answer: activated

Question: For CC1(C)C2CCC1(C)C(O)C2 (centres unmarked) [borneol], which EC50 [1] is on record?
Answer: 240 µM

Question: And the “antibiofilm and antihyphal properties” value [3]?
Answer: antibiofilm and antihyphal properties

Question: For C=C1C2CCC(C2)C1(C)C (centres unmarked) [camphene], which “Olfr57 activation” value [1] is on record?
Answer: did not elicit a cAMP-mediated response; also recorded: non-activators

Question: For CCc1nccnc1C [2-ethyl-3-methylpyrazine], which EC50 [4] is on record?
Answer: 1670 µM

Question: Which “Olfr57 activation” value [1] does the source give for CC1(C)C2CCC1(CS(=O)(=O)O)C(=O)C2 (centres unmarked) [camphorsulfonic acid] here?
Answer: did not elicit a cAMP-mediated response; also recorded: non-activators

Question: With c1cnccn1 [pyrazine] as the compound, how does the “Olfr177 activation” value [4] read?
Answer: did not elicit OR activation

Question: For CC1=CC[C@@]23CC1C(C)(C)[C@@H]2CC[C@H]3C [α-cedrene], which “Activation of Olfr16 and OR10J5” value [9] is on record?
Answer: activated

Question: With C=C1CCC2CC1C2(C)C (centres unmarked) [pinene] as the compound, how does the “Olfr57 activation” value [1] read?
Answer: did not elicit a cAMP-mediated response; also recorded: non-activators
